Test [1] deals with acute myocardial infarction in rats. In words: Acute myocardial infarction in rats by coronary artery (LAD) ligature: myocardial infarction rate (MIR). The conditions noted are these: intragastric pre-administration 7 d (Y 4.5, G 115, F 84 mg/kg). The class given is in vivo, SD male rats.
Excerpt: (§1) SD male rats, weighing 340˜360 g, were purchased from Beijing Weitonglihua Experimental Animal Co., Ltd, and certification No.: SCXK (Jing) 2007-0001.
(§2) Grouping: the rats were randomly divided into groups according to their body weight: S group (Sham operation group), M group (Model group), Y group (Positive control group, metoprolol tartrate, Lot No. 1201039), F group (CSMDP of the present invention) and G group (CSDP available in China, Lot No. 2011L16); 10 rats in each group.
On the 8th day, the rats were anesthetized intraperitoneally with 10% chloral hydrate (3 ml/kg) and fixed on a small wood plate in a supine position. Pins were inserted under the skin of the right forelimb and both hind limbs, and then the rats were connected with the MedLab-U/8c bio-signals collecting-processing system to record ECG of the rats. Hair on the front wall of the left chest was clipped. Oral tracheal cannula was performed and the animal respirator was connected at a respiratory frequency of 80 breaths/min, tidal volume 3 ml/100 g and I:E=1:1. Chest on the left front chest lateral side was incised to cut the 3′ rib and the pericardium was carefully lifted with forceps to tear apart. […] ECG was recorded continuously for 4 hours. […]
Test [2] deals with heart rate in rats with myocardial infarction. As to the kind of experiment: Heart rate (ECG) in rats with myocardial infarction after ligation. The conditions noted are these: 7 d pre-administration. It is filed as in vivo, SD male rats.
Excerpt: as §1, §2
On the 8th day, the rats were anesthetized intraperitoneally with 10% chloral hydrate (3 ml/kg) and fixed on a small wood plate in a supine position. Pins were inserted under the skin of the right forelimb and both hind limbs, and then the rats were connected with the MedLab-U/8c bio-signals collecting-processing system to record ECG of the rats. Hair on the front wall of the left chest was clipped. Oral tracheal cannula was performed and the animal respirator was connected at a respiratory frequency of 80 breaths/min, tidal volume 3 ml/100 g and I:E=1:1. Chest on the left front chest lateral side was incised to cut the 3′ rib and the pericardium was carefully lifted with forceps to tear apart. […] Medical suture (4-0) was used to transfix LAD and a small amount of myocardial tissue at a distance of about 1˜2 mm from the lower edge of the left atrial appendage and inside interventricular sulcus in the vicinity of the left main trunk of coronary vein. The rats with an elevated J point by 0.1 mV in ECG and pale LVAW (left ventricular anterior wall) indicated a successful modeling. Chest was closed layer by layer. The tracheal tube was removed until the voluntary respiration was recovered in the rats. ECG was recorded continuously for 4 hours.

SMILES strings stand for the structures. Structures can show the parent of a compound that is named as a salt.

For the compound `COCCc1ccc(OCC(O)CNC(C)C)cc1` (stereo not drawn) [Y group, metoprolol tartrate], the “Average wet weight of the infarction region” value in test [1] (LAD ligation on 8th day, heart taken after 4 h ECG) is on record as 0.0233 ± 0.0038 g. Further, the “MIR (myocardial infarction rate = wet weight of the infarction region/wet weight of the whole heart x 100%)” value in test [1] (LAD ligation, model group 5.07 ± 0.75) amounted to 2.65 ± 0.33 %. For the same compound, the heart rate was 377 ± 48 beat/min in test [2] (0 s after ligation); 423 ± 39 beat/min in test [2] (5 s after ligation); 419 ± 41 beat/min in test [2] (10 s after ligation); 424 ± 29 beat/min in test [2] (5 min after ligation); 431 ± 17 beat/min in test [2] (10 min after ligation); 413 ± 34 beat/min in test [2] (30 min after ligation). Also, the heart rate in test [2] (1 h after ligation) is recorded as 421 ± 47 beat/min; in test [2] (2 h after ligation), 416 ± 33 beat/min; in test [2] (3 h after ligation) it was 380 ± 66 beat/min; in test [2] (4 h after ligation) it was 395 ± 52 beat/min.

For the origin of these results see US11013694B2, “Formulation of a micro drop pill and the preparation method thereof” (TASLY PHARMACEUTICAL GROUP CO., LTD., priority 2013, dated 2021).
